Reference: patent publication US20060247263A1, “Substituted heterocyclic compounds and methods of use” (Amgen Inc., priority 2005, published 2006)

Tested on: LPS induced TNF release
Experiment: Lipopolysaccharide-Activated THP1 Cell TNF Production Assay
Assay type: cell-based
Details: Homo sapiens, THP-1, THP1 cells, 3 h at 37° C., secreted TNF-α
Protocol: Lipopolysaccharide-Activated THP1 Cell TNF Production Assay
THP1 cells are resuspended in fresh THP1 media (RPMI 1640, 10% heat-inactivated FBS, 1XPGS, 1XNEAA, plus 30 μM βME) at a concentration of 1E6/mL. One hundred microliters of cells per well are plated in a polystyrene 96-well tissue culture. One microgram per mL of bacterial LPS is prepared in THP1 media and is transferred to the wells. Test compounds are dissolved in 100% DMSO and are serially diluted 3 fold in a polypropylene 96-well microtiter plate (drug plate). HI control and LO control wells contain only DMSO. One microliter of test compound from the drug plate followed by 10 μL of LPS are transferred to the cell plate. The treated cells are induced to synthesize and secrete TNF-α at 37° C. for 3 h. Forty microliters of conditioned media are transferred to a 96-well polypropylene plate containing 110 μL of ECL buffer (50 mM Tris-HCl pH 8.0, 100 mM NaCl, 0.05% Tween 20, 0.05% NaN3 and 1% FBS) supplemented with 0.44 nM MAB610 monoclonal Ab (R&D Systems), 0.34 nM ruthenylated AF210NA polyclonal Ab (R&D Systems) and 44 μg/mL sheep anti-mouse M280 Dynabeads (Dynal). After a 2 h incubation at RT with shaking, the reaction is read on the ECL M8 Instrument (IGEN Inc.). A low voltage is applied to the ruthenylated TNF-α immune complexes, which in the presence of TPA (the active component in Origlo), results in a cyclical redox reaction generating light at […]. The amount of secreted TNF-α in the presence of compound compared with that in the presence of DMSO vehicle alone (HI control) is calculated using the formula:% control (POC)=(cpd−average LO)/(average HI−average LO)*100. Data (consisting of POC and inhibitor concentration in μM) is fitted to a 4-parameter equation (y=A+((B−A)/(1+((x/C)ˆD))), where A is the minimum y (POC) value, B is the maximum y (POC), C is the x (cpd concentration) at the point of inflection and D is the slope factor) using a Levenburg-Marquardt non-linear regression algorithm.

| IC50 | Compound |
| --- | --- |
| ≤ 20 µM | CC(Cc1cccc(CO)c1)Nc1nccc(N(C)c2cc(-c3ccccc3)c3ncn(C)c3c2)n1 (stereo not shown) [(3-(2-(4-(Methyl(3-methyl-7-phenyl-3H-benzo[d]imidazol-5-yl)amino)pyrimidin-2-ylamino)propyl)phenyl)methanol] |
| ≤ 20 µM | CC(Cc1cccc(CN)c1)Nc1nccc(N(C)c2cc(-c3ccccc3)c3ncn(C)c3c2)n1 (stereo not shown) [N2-(1-(3-(Aminomethyl)phenyl)propan-2-yl)-N-4-methyl-N-4-(3-methyl-7-phenyl-3H-benzo[d]imidazol-5-yl)pyrimidine-2,4-diamine] |
| ≤ 20 µM | CC(Cc1cccc(CN=[N+]=[N-])c1)Nc1nccc(N(C)c2cc(-c3ccccc3)c3ncn(C)c3c2)n1 (stereo not shown) [N2-(1-(3-(Azidomethyl)phenyl)propan-2-yl)-N-4-methyl-N-4-(3-methyl-7-phenyl-3H-benzo[d]imidazol-5-yl)pyrimidine-2,4-diamine] |
| ≤ 20 µM | CC(Cc1cccc(CN)c1)Nc1nccc(N(C)c2cc(-c3ccccc3)c3c(c2)ncn3C)n1 (stereo not shown) [N2-(1-(3-(aminomethyl)phenyl)propan-2-yl)-N-4-methyl-N-4-(1-methyl-7-phenyl-1H-benzo[d]imidazol-5-yl)pyrimidine-2,4-diamine] |
| ≤ 20 µM | C[C@H](N)c1cccc(C[C@H](C)Nc2nccc(N(C)c3cc(-c4ccccc4)c4ncn(C)c4c3)n2)c1 [N2-((S)-1-(3-((S)-1-Aminoethyl)phenyl)propan-2-yl)-N-4-methyl-N-4-(3-methyl-7-phenyl-3H-benzo[d]imidazol-5-yl)pyrimidine-2,4-diamine] |
| ≤ 20 µM | CC(C)CNc1nccc(N(C)c2cc(-c3ccccc3)c3ncn(C)c3c2)n1 [N2-isobutyl-N-4-methyl-N-4-(3-methyl-7-phenyl-3H-benzo[d]imidazol-5-yl)-pyrimidine-2,4-diamine] |

Further lines, the molecule ahead of its results:

| Compound | IC50 |
| --- | --- |
| CN(c1cc(-c2ccccc2)c2ncn(C)c2c1)c1ccnc(NC2CCNCC2)n1 | ≤ 20 µM |
| CN(c1cc(-c2ccccc2)c2ncn(C)c2c1)c1ccnc(NCCc2ccccc2Cl)n1 [N2-(2-chlorophenethyl)-N-4-methyl-N-4-(3-methyl-7-phenyl-3H-benzo[d]imidazol-5-yl)pyrimidine-2,4-diamine] | ≤ 20 µM |
| CN(c1cc(-c2ccccc2)c2ncn(C)c2c1)c1ccnc(NC2CCC(N)CC2)n1 (stereo not shown) [N2-((1 s,4s)-4-aminocyclohexyl)-N-4-methyl-N-4-(3-methyl-7-phenyl-3H-benzo[d]imidazol-5-yl)pyrimidine-2,4-diamine] | ≤ 20 µM |
| CN(c1cc(-c2ccccc2)c2nc[nH]c2c1)c1ccnc(NCCc2cccnc2)n1 [N4-Methyl-N-4-(7-phenyl-3H-benzo[d]imidazol-5-yl)-N-2-(2-(pyridin-3-yl)ethyl)-pyrimidine-2,4-diamine] | ≤ 20 µM |
| CN(c1cc(-c2ccccc2)c2ncn(C)c2c1)c1ccnc(NCCc2cccnc2)n1 [N4-methyl-N-4-(3-methyl-7-phenyl-3H-benzo[d]imidazol-5-yl)-N-2-(2-(pyridin-3-yl)ethyl)pyrimidine-2,4-diamine] | ≤ 20 µM |
| CN(c1cc(-c2ccccc2)c2ncn(C)c2c1)c1ccnc(NCCOc2ccccc2)n1 [N-4-methyl-N-4-(3-methyl-7-phenyl-3H-benzo[d]imidazol-5-yl)-N-2-(2-phenoxy-ethyl)pyrimidine-2,4-diamine] | ≤ 20 µM |
| CN(c1cc(-c2ccccc2)c2ncn(C)c2c1)c1ccnc(NC2CCN(C(=O)OC(C)(C)C)CC2)n1 [tert-Butyl 4-(4-(methyl(3-methyl-7-phenyl-3H-benzo[d]imidazol-5-yl)amino)-pyrimidin-2-ylamino)piperidine-1-carboxylate] | ≤ 20 µM |
